Data published in patent publication US12544431B2, “Peptides for the treatment of cancer and/or metastasis” (BCN PEPTIDES, S.A., priority 2019, dated 2026).
“Also recorded” adds a separate entry of the source. Marks after values point to notes of the source that are not given here. Where a SMILES comes first, the peptide text is derived from it. [ ]: non-standard residue; d: D form. Phe(2,4,6-Me3) = Cc1cc(C)c(C[C@H](N)C(=O)O)c(C)c1; pGlu = O=C1CC[C@@H](C(=O)O)N1

Experiments:
[1] = In vitro stability, half-life in human plasma; type: in vitro ADME; conditions: 90% human plasma, 37° C., RP-HPLC; read-out: t½ (hours) in human plasma (converted)
Description: The peptides and peptide dimer synthesized and prepared in accordance with Example 1 were dissolved in water at a concentration of 6 mg/mL and warmed up to 37° C.
Human plasma was obtained as a lyophilized solid (K3 EDTA Plasma, BBI Solutions, code S112-1), reconstituted with sterile 0.9% sodium chloride solution and stored at −20° C. Human plasma was thawed and incubated at 37° C. before use.
The peptides and peptide dimer were incubated in 90% human plasma at 37° C. for different times and then precipitated with two volume equivalents of methanol. The samples were cooled in an acetone-carbon dioxide bath for a few seconds and centrifuged for 12 minutes at 4° C. at approximately 10,000 rpm. The supernatant was filtered with a 0.45 μm PVDF filter and analyzed in triplicate by RP-HPLC using an isocratic method (Eluent A=0.1% TFA in water; Eluent B=0.07% TFA in ACN, Column=Kromasil C8, 100 Å, 5 μm, 250×4.6 mm, Flow=1 mL/min, Wavelength: 220 nm, Injection volume=20 μL, Temperature=60° C.). The disappearance of the compound was determined in relation to the area of the initial time to calculate its half-life.

[2] = tested on: RH30 rhabdomyosarcoma cells; test: Matrigel-coated transwell invasion assay, RH30 cells; type: cell-based; conditions: % invasive cells vs non-treated control
Description: (§1) 10^5 RH30 or RD cells were plated in the upper chamber of a Matrigel-coated transwell (Corning) in 0.1 mL medium without FBS. Cells were previously incubated with different concentrations (0 nM, 100 nM, 200 nM, 500 nM and 1000 nM) of the peptides and peptide dimer for 48 hours, being also present in the medium during the cell invasion assay. In the lower chamber, 0.6 mL of medium with FBS was added. Cells were incubated at 37° ° C. for 24 hours.
(§2) After that, cells were fixed with 4% paraformaldehyde (Sigma) for 10 minutes, followed by washing with PBS. After removal of the Matrigel and remaining cells from the upper face of the membrane with a cotton swab, the cells present on the lower face were stained with a Hoechst dilution (Sigma) and were counted (5 fields for each well) with an inverted fluorescence microscope Nikon with a 10× objective. All experiments were made in triplicate. In Table 6 the % Invasiveness represents the mean percentage of invasive cells with respect to their controls.

[3] = tested on: RD rhabdomyosarcoma cells; test: Matrigel-coated transwell invasion assay, RD cells; type: cell-based; conditions: % invasive cells vs non-treated control
Description: as §1, §2

[4] = tested on: CHLA-90 neuroblastoma cells; test: Transwell invasion assay, CHLA-90 cells; type: cell-based
Description: as §1, §2
(§3) The transwell assay with CHLA-90 and BE(2)-C cell lines was done following the same conditions detailed for determining the % of invasiveness in rhabdomyosarcoma cells.
(§4) The transwell assay with neuroblastoma cell lines (CHLA-90, BE(2)-C and SK—N-BE(2)-C)) and breast cancer cell lines (MDA-MB-231 and MDA-MB-468) was performed at the same conditions detailed for determining the % of invasiveness in rhabdomyosarcoma cells.

[5] = tested on: BE(2)-C neuroblastoma cells; test: Transwell invasion assay, BE(2)-C cells; type: cell-based
Description: as §1, §2, §3, §4

[6] = tested on: RD rhabdomyosarcoma cells; test: Rhabdomyosarcoma metastatic mice model (RD cells i.v. in tail vein); type: in vivo, SCID/Beige mice; conditions: for event-free survival vs vehicle group (in words): 27-week study; for Absence of metastases, number of mice / Absence of metastases, percentage of mice / Presence of metastases (%), percentage of mice / Presence of metastases, number of mice: 27 weeks; for body weight, treated vs vehicle-treated mice (in words): along the 27-week study; for reduction in metastases formation: vs PBS-treated mice
Description: SCID/Beige female mice aged of 5 weeks were administered subcutaneously (s.c.) at day −1 with the first dose of treatment i.e. the vehicle (PBS, Phosphate buffered saline) or the peptides. On day 0, mice were injected intravenously (i.v.) in the tail vein with 2×10^6 RD rhabdomyosarcoma cells.
Body weight was evaluated twice per week for 27 weeks. Overall survival and event-free survival were determined. At necropsy, the total number of metastases were quantified and the number of metastases per mice and their localization were also reported.

[7] = 500 nM peptide, listed as SEQ ID NO: 6—NH2
[8] = 0.5 mg/kg s.c. three times per week
[9] = 2 mg/kg s.c. three times per week

## Cc1cc(C)c(C[C@H](NC(=O)[C@H](CCC(=O)O)NC(=O)[C@@H]2CCCN2C(=O)[C@H](CC(C)C)NC(=O)[C@H](CC(=O)O)NC(=O)[C@H](CS)NC(=O)[C@H](CO)NC(=O)[C@H](CC(N)=O)NC(=O)[C@H](CO)NC(=O)[C@H](CO)NC(=O)[C@H](CC(=O)O)NC(=O)[C@H](CCCNC(=N)N)NC(=O)[C@H](CCCCN)NC(=O)[C@@H]2CCC(=O)N2)C(=O)N[C@@H](CCCCN)C(N)=O)c(C)c1 [SEQ ID NO: 6-NH2, Pyr-Lys-Arg-Asp-Ser-Ser-Asn-Ser-Cys-Asp-Leu-Pro-Glu-Msa-Lys-NH2] ([pGlu]KRDSSNSCDLPE[Phe(2,4,6-Me3)]K-NH2)
[1]
  half-life at 0.6 mg/mL: 0.17 h
[2]; 100 nM peptide
  % Invasiveness RH30: 54.67%
[2]; 500 nM peptide
  % Invasiveness RH30: 22.77* %
[2]; [7]
  % Invasiveness RH30: significant reduction
[3]; 100 nM peptide
  % Invasiveness RD: 39.45%
[3]; 500 nM peptide
  % Invasiveness RD: 39.98%
[4]; 100 nM peptide
  % Invasiveness CHLA-90: 75.90%
[4]; 200 nM peptide
  % Invasiveness CHLA-90: 55.22* %
[4]; 200 nM peptide, listed as SEQ ID NO: 6—NH2
  % Invasiveness CHLA-90: significant reductions
[4]; 500 nM peptide
  % Invasiveness CHLA-90: 44.58* %
[4]; 1000 nM peptide
  % Invasiveness CHLA-90: 49.00* %
[5]; 100 nM peptide
  % Invasiveness BE(2)-C: 60.08%
[5]; 200 nM peptide
  % Invasiveness BE(2)-C: 59.04%
[5]; 500 nM peptide
  % Invasiveness BE(2)-C: 31.17* %
[5]; [7]
  % Invasiveness BE(2)-C: significant reductions
[5]; 1000 nM peptide
  % Invasiveness BE(2)-C: 23.54* %
[6]; 0.5 mg/kg (lower dose), listed as SEQ ID NO: 6—NH2
  event-free survival vs vehicle group (in words): did not show a significant effect
[6]; 0.5 mg/kg (lower dose), listed as SEQ ID NO:6—NH2
  event-free survival vs vehicle group (in words): did not show statistically significant difference
[6]; [8]
  Absence of metastases, number of mice: 1
  Absence of metastases, percentage of mice: 17%
  Presence of metastases (%), percentage of mice: 83%
  Presence of metastases, number of mice: 5
[6]; 0.5 mg/kg
  body weight, treated vs vehicle-treated mice (in words): vehicle-treated mice showed a statistically significant lower body weight
  reduction in metastases formation: ~15%
[6]; 2 mg/kg (higher dose), at necropsy
  number of metastases per mouse vs vehicle (in words): statistically reduced the formation of metastases per mouse; also recorded: efficacious in the reduction of the number of metastases
[6]; [9]
  Absence of metastases, number of mice: 1
  Absence of metastases, percentage of mice: 14%
  Presence of metastases (%), percentage of mice: 86%
  Presence of metastases, number of mice: 6
[6]; 2 mg/kg, Log-rank
  event-free survival vs vehicle group (in words): did not show statistically significant difference
[6]; 2 mg/kg
  body weight, treated vs vehicle-treated mice (in words): vehicle-treated mice showed a statistically significant lower body weight
  reduction in metastases formation: ~15%
